Assays:
[1] = biological target: T1, Estrogen receptor (Homo sapiens) (UniProt P03372); experiment: Binding affinity to human ERalpha assessed as relative binding affinity incubated under vibration for 1 min followed by 2 hrs incubation under dark condition by fluorescence polarization assay relative to estradiol; conditions: time 121.0 min
T1 sequence (whole entry): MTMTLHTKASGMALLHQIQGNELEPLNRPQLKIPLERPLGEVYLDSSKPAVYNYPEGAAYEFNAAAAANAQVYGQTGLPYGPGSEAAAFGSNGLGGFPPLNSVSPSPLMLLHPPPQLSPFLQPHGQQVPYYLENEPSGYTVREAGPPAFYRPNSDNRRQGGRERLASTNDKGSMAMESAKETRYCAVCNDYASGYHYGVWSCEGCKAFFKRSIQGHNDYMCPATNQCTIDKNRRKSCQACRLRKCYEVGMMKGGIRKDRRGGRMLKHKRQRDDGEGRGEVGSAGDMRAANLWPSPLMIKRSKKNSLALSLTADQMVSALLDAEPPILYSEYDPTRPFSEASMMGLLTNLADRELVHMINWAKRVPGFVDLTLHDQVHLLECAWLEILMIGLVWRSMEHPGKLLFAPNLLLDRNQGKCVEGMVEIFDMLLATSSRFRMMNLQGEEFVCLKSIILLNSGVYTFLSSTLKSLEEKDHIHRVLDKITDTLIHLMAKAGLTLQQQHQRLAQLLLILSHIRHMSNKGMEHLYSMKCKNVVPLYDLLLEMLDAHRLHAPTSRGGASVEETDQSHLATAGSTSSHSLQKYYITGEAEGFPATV

[2] = biological target: Estrogen receptor beta (Homo sapiens) (UniProt Q92731); experiment: Binding affinity to human ERbeta assessed as relative binding affinity incubated under vibration for 1 min followed by 2 hrs incubation under dark condition by fluorescence polarization assay relative to estradiol; conditions: time 121.0 min
Homo sapiens = species: Homo sapiens; experiment: Selectivity ratio of relative binding affinity for human ERalpha to relative binding affinity to human ERbeta
MCF7 = experiment: Antiproliferative activity against ERalpha positive human MCF7 cells assessed as inhibition of cell proliferation incubated for 72 hrs by CCK8 assay; format: functional, cell-based; conditions: MCF7, 72 h
T47D = experiment: Antiproliferative activity against ERalpha positive human T47D cells assessed as inhibition of cell proliferation incubated for 72 hrs by CCK8 assay; format: functional, cell-based
[3] = Cytotoxicity against human MCF-10A cells assessed as inhibition of cell proliferation incubated for 72 hrs by CCK8 assay; format: toxicity, cell-based
[4] = Selectivity index, ratio of IC50 for cytotoxicity against human MCF-10A cells to IC50 for antiproliferative activity against human MCF7 cells; format: toxicity, cell-based; conditions: MCF-10A cells and MCF7 cells, read-out: Ratio IC50

Sequence of Estrogen receptor beta (Homo sapiens) (Q92731 whole entry): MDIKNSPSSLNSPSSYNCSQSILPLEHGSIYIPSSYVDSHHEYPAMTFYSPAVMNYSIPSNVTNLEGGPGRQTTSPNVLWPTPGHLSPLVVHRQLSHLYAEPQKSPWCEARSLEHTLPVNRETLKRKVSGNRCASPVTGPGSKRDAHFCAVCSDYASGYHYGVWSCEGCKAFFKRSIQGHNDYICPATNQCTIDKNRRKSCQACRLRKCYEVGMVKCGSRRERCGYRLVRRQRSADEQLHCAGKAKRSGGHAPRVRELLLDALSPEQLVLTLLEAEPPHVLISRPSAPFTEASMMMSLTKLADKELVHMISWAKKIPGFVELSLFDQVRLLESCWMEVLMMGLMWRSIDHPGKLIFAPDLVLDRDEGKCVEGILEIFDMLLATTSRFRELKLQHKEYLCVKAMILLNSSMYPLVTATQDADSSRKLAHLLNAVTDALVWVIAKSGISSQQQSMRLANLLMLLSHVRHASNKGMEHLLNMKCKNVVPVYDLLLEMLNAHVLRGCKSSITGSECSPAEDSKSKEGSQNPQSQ

| SMILES | RBA [1] [%] | RBA [2] [%] | Selectivity ratio (Homo sapiens) | IC50 (MCF7) [µM] | IC50 (T47D) [µM] | IC50 at 72 h [3] [µM] | selectivity ratio [4] |
| --- | --- | --- | --- | --- | --- | --- | --- |
| N#C[Se]CCCCCC(=O)Nc1ccc(C2=C(c3ccc(O)cc3)C3CC(S(=O)(=O)Oc4cccc(Br)c4)C2O3)cc1 (stereo unspecified) | 0.59 | 0.31 | 1.9 | 1.23 | 2.84 | 22.7 | 18.5 |
| COc1ccccc1OS(=O)(=O)C1CC2OC1C(c1ccc(NC(=O)CCCCC[Se]C#N)cc1)=C2c1ccc(O)cc1 (stereo unspecified) | 16 | 1.29 | 12.4 | 0.49 | 1.8 | 7.37 | 15 |
| N#C[Se]CCCCCC(=O)Nc1ccc(C2=C(c3ccc(O)cc3)C3CC(S(=O)(=O)Oc4cccc5ccccc45)C2O3)cc1 (stereo unspecified) | 15.5 | 9 | 1.72 | 2.43 | 1.71 | 13.9 | 5.72 |
| N#C[Se]CCCCCC(=O)Nc1ccc(C2=C(c3ccc(O)cc3)C3CC(S(=O)(=O)Oc4ccc(O)cc4)C2O3)cc1 (stereo unspecified) | 7.83 | 0.73 | 10.7 | 1.5 | 4.98 | 10.4 | 6.94 |
| N#C[Se]CCCCCCOc1ccc(OS(=O)(=O)C2CC3OC2C(c2ccc(O)cc2)=C3c2ccc(O)cc2)cc1 (stereo unspecified) | 9.98 | 1.73 | 5.77 | 5.14 | 7.47 | 10.8 | 2.1 |
| Cc1ccc(OS(=O)(=O)C2CC3OC2C(c2ccc(NC(=O)CCCCC[Se]C#N)cc2)=C3c2ccc(O)cc2)cc1 (stereo unspecified) | 3.31 | 2.63 | 1.26 | 2.75 | 3.13 | 41.1 | 15 |
| Cc1cccc(OS(=O)(=O)C2CC3OC2C(c2ccc(NC(=O)CCCCC[Se]C#N)cc2)=C3c2ccc(O)cc2)c1 (stereo unspecified) | 0.99 | 1.29 | 0.77 | 0.71 | 13.3 | 30.2 | 42.5 |
| N#C[Se]CCCCCC(=O)Nc1ccc(C2=C(c3ccc(O)cc3)C3CC(S(=O)(=O)Oc4ccc(Br)cc4)C2O3)cc1 (stereo unspecified) | 0.31 | 3.48 | 0.09 | 1.85 | 120 | 18.6 | 10.1 |
| N#C[Se]CCCCCC(=O)Nc1ccc(C2=C(c3ccc(O)cc3)C3CC(S(=O)(=O)Oc4ccccc4C(F)(F)F)C2O3)cc1 (stereo unspecified) | 23.1 | 5.79 | 10.6 | 0.35 | 1.77 | 12.9 | 36.9 |
| N#C[Se]CCCCCC(=O)Nc1ccc(C2=C(c3ccc(O)cc3)C3CC(S(=O)(=O)Oc4ccccc4Cl)C2O3)cc1 (stereo unspecified) | 8.21 | 1.52 | 5.4 | 0.49 | 2.55 | 10.1 | 20.7 |
| N#C[Se]CCCCCC(=O)Nc1ccc(C2=C(c3ccc(O)cc3)C3CC(S(=O)(=O)Oc4cccc(O)c4)C2O3)cc1 (stereo unspecified) | 14.2 | 0.91 | 15.6 | 1.29 | > 31 | > 60 | > 46.5 |
| N#C[Se]CCCCCC(=O)Nc1ccc(C2=C(c3ccc(O)cc3)C3CC(S(=O)(=O)Oc4ccc(Cl)cc4)C2O3)cc1 (stereo unspecified) | 0.6 | 2.64 | 0.23 | 1.32 | 3.52 | 11.8 | 8.94 |
| COc1cc2c(c(OC)c1OC)-c1ccc(OC)c(=O)cc1[C@@H](NC(C)=O)CC2 [COLCHICINE] | – | – | – | 0.001 | 0.00028 | – | – |
| N#C[Se]CCCCCC(=O)Nc1ccc(C2=C(c3ccc(O)cc3)C3CC(S(=O)(=O)Oc4ccc5ccccc5c4)C2O3)cc1 (stereo unspecified) | 4.51 | 0.23 | 19.6 | 3 | > 31 | 22.6 | 7.52 |
| N#C[Se]CCCCCC(=O)Nc1ccc(C2=C(c3ccc(O)cc3)C3CC(S(=O)(=O)Oc4ccccc4O)C2O3)cc1 (stereo unspecified) | 30.9 | 1.15 | 26.9 | 0.32 | 3.58 | 7.49 | 23.4 |

Second part, led by results:

| RBA [1] [%] | RBA [2] [%] | Selectivity ratio (Homo sapiens) | IC50 (MCF7) [µM] | IC50 (T47D) [µM] | SMILES | IC50 at 72 h [3] [µM] | selectivity ratio [4] |
| --- | --- | --- | --- | --- | --- | --- | --- |
| 1.05 | 1.7 | 0.62 | 2.02 | 18.1 | N#C[Se]CCCC(=O)Nc1ccc(C2=C(c3ccc(O)cc3)C3CC(S(=O)(=O)Oc4ccccc4)C2O3)cc1 (stereo unspecified) | 59.9 | 29.7 |
| 4.72 | 0.78 | 6.05 | 1.22 | 3.21 | N#C[Se]CCCCCC(=O)Nc1ccc(C2=C(c3ccc(O)cc3)C3CC(S(=O)(=O)Oc4ccccc4)C2O3)cc1 (stereo unspecified) | > 60 | > 49.2 |
| 3.31 | 0.53 | 6.25 | 0.78 | 2.05 | N#C[Se]CCCCCC(=O)Nc1ccc(C2=C(c3ccc(O)cc3)C3CC(S(=O)(=O)Oc4cccc(F)c4)C2O3)cc1 (stereo unspecified) | 17.5 | 22.4 |
| 2.21 | 0.18 | 12.3 | 0.86 | 1.71 | N#C[Se]CCCCCC(=O)Nc1ccc(C2=C(c3ccc(O)cc3)C3CC(S(=O)(=O)Oc4ccccc4Br)C2O3)cc1 (stereo unspecified) | 7.55 | 8.78 |
| 14.1 | 3.12 | 4.53 | 0.62 | 2.23 | Cc1ccccc1OS(=O)(=O)C1CC2OC1C(c1ccc(NC(=O)CCCCC[Se]C#N)cc1)=C2c1ccc(O)cc1 (stereo unspecified) | 10.2 | 16.5 |
| 0.57 | 0.24 | 2.38 | 2.76 | 24.6 | N#C[Se]CC(=O)Nc1ccc(C2=C(c3ccc(O)cc3)C3CC(S(=O)(=O)Oc4ccccc4)C2O3)cc1 (stereo unspecified) | 38.6 | 14 |
| 0.71 | 2.06 | 0.34 | 1.71 | > 31 | N#C[Se]CCCCCCCC(=O)Nc1ccc(C2=C(c3ccc(O)cc3)C3CC(S(=O)(=O)Oc4ccccc4)C2O3)cc1 (stereo unspecified) | 20.5 | 12 |
| 2.05 | 3.74 | 0.55 | 1.18 | 1.43 | N#C[Se]CCCCCC(=O)Nc1ccc(C2=C(c3ccc(O)cc3)C3CC(S(=O)(=O)Oc4ccc(F)cc4)C2O3)cc1 (stereo unspecified) | 11.5 | 9.75 |
| 0.97 | 0.05 | 19.4 | 2.62 | 1.97 | COc1ccc(OS(=O)(=O)C2CC3OC2C(c2ccc(NC(=O)CCCCC[Se]C#N)cc2)=C3c2ccc(O)cc2)cc1 (stereo unspecified) | 13.1 | 4.99 |
| 4.43 | 1.61 | 2.75 | 2.84 | 3.02 | N#C[Se]CCCCCC(=O)Nc1ccc(C2=C(c3ccc(O)cc3)C3CC(S(=O)(=O)Oc4ccc(C(F)(F)F)cc4)C2O3)cc1 (stereo unspecified) | 16.2 | 5.72 |
| 0.17 | 0.3 | 0.57 | 0.57 | > 31 | N#C[Se]CCCCCC(=O)Nc1ccc(C2=C(c3ccc(O)cc3)C3CC(S(=O)(=O)Oc4cccc(C(F)(F)F)c4)C2O3)cc1 (stereo unspecified) | 53.6 | 94.1 |
| 12.1 | 0.35 | 34.7 | 2.49 | 3.21 | COc1cccc(OS(=O)(=O)C2CC3OC2C(c2ccc(NC(=O)CCCCC[Se]C#N)cc2)=C3c2ccc(O)cc2)c1 (stereo unspecified) | 19.9 | 7.99 |
| 4.08 | 0.1 | 40.8 | 0.7 | 4.09 | N#C[Se]CCCCCC(=O)Nc1ccc(C2=C(c3ccc(O)cc3)C3CC(S(=O)(=O)Oc4cccc(Cl)c4)C2O3)cc1 (stereo unspecified) | 29.7 | 42.4 |
